In ChEMBL document CHEMBL4765421, “Synthesis of natural 3'-Prenylchalconaringenin and biological evaluation of ameliorating non-alcoholic fatty liver disease and metabolic syndrome” (Eur J Med Chem, 2020):
The source made the active and inactive calls.

Experiments:
Mus musculus [1] = assay: In vivo effect on PPAR signaling in tyloxapol-induced Kunming mouse model of hyperlipidemia assessed as decrease in PPARbeta expression in white adipose tissue at 50 to 100 mg/kg, po measured after 24 hrs by Western blot analysis; type: functional, organism-based; conditions: dose 50-100 mg/kg
3T3-L1 = assay: Activation of AMPK in mouse 3T3-L1 preadipocytes assessed as increase in AMPK phosphorylation at 0.1 to 15 uM by Western blot analysis; type: cell-based; conditions: filed as activator, dose 0.1-15 µM
Mus musculus [2] = assay: Hypolipidemic activity in tyloxapol-induced Kunming mouse model of hyperlipidemia assessed as reduction in liver triglyceride level administered orally measured after 24 hrs; type: functional, organism-based

Measured: Activity

CC(C)=CCC/C(C)=C/Cc1c(O)cc(O)c(C(=O)/C=C/c2ccc(O)cc2)c1O
active: Mus musculus [1] | 3T3-L1 | Mus musculus [2] Dose-dependent effect
